Laboratory results as given in PubChem BioAssay AID330 (DTP/NCI, 2004).
Values joined by “and” are separate entries in the source; they are usually repeats but may differ in a detail not shown here. Equal entries are not always repeated. Inconclusive results and toxic doses are left out.

Tested on: P388 leukemia ip, CD2F1 mice, survival T/C
Test: NCI In Vivo Anticancer Drug Screen. Data for tumor model P388 Leukemia (intraperitoneal) in CD2F1 (CDF1) mice
Settings: endpoint: median survival time, higher = longer survival
Summary of the method: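 Mice carrying the transplanted tumor received test compound or vehicle. Survival was recorded in each group, and the value is the treated-group measurement divided by that of the vehicle-treated control group.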

[1] = dose: 12.5 mg/kg/injection, schedule: Q01DX005 (ip), vehicle: saline with Tween-80
[2] = dose: 100.0 mg/kg/injection, schedule: Q04DX003 (ip), vehicle: saline with Tween-80
[3] = dose: 200.0 mg/kg/injection, schedule: Q01DX009 (ip), vehicle: saline with Tween-80
[4] = dose: 100.0 mg/kg/injection, schedule: Q01DX009 (ip), vehicle: saline with Tween-80
[5] = dose: 50.0 mg/kg/injection, schedule: Q01DX005 (ip), vehicle: saline with Tween-80
[6] = dose: 50.0 mg/kg/injection, schedule: Q01DX009 (ip), vehicle: saline with Tween-80
[7] = dose: 60.0 mg/kg/injection, schedule: Q01DX005 (ip), vehicle: saline with Tween-80
[8] = dose: 120.0 mg/kg/injection, schedule: Q01DX005 (ip), vehicle: saline with Tween-80
[9] = dose: 240.0 mg/kg/injection, schedule: Q01DX005 (ip), vehicle: saline with Tween-80
[10] = dose: 100.0 mg/kg/injection, schedule: Q01DX009 (ip), vehicle: saline

C[Se](=C(C(=O)c1ccccc1)C(=O)c1ccccc1)c1ccccc1 (stereo not drawn)
T/C (dose: 100.0 mg/kg/injection, schedule: Q04DX002 (ip), vehicle: saline): 99 % of control | T/C (dose: 200.0 mg/kg/injection, schedule: Q04DX002 (ip), vehicle: saline): 100 % of control | T/C (dose: 400.0 mg/kg/injection, schedule: Q04DX002 (ip), vehicle: saline): 98 % of control

CC(=O)C(C(C)=O)[N+](=O)[O-].CC(=O)C(C(C)=O)[N+](=O)[O-].[Cu]
T/C (dose: 6.25 mg/kg/injection, schedule: Q01DX005 (ip), vehicle: saline with Tween-80): 100 % of control | T/C [1]: 105 % of control

CS(=O)(=O)CCCCCCCCCCS(C)(=O)=O
T/C (dose: 100.0 mg/kg/injection, schedule: Q01DX001 (ip), vehicle: saline): 95 % of control | T/C (dose: 200.0 mg/kg/injection, schedule: Q01DX001 (ip), vehicle: saline): 100 % of control | T/C (dose: 400.0 mg/kg/injection, schedule: Q01DX001 (ip), vehicle: saline): 93 % of control

Cc1ccc(S(=O)(=O)OCCN(CCOS(=O)(=O)c2ccc(C)cc2)c2ccc(C=O)cc2)cc1
T/C (dose: 0.78 mg/kg/injection, schedule: Q04DX003 (ip), vehicle: saline with Tween-80): 100 % of control | T/C (dose: 1.56 mg/kg/injection, schedule: Q04DX003 (ip), vehicle: saline with Tween-80): 113 % of control | T/C (dose: 3.13 mg/kg/injection, schedule: Q04DX003 (ip), vehicle: saline with Tween-80): 100 % of control | T/C (dose: 12.5 mg/kg/injection, schedule: Q04DX003 (ip), vehicle: saline with Tween-80): 154 % of control | T/C (dose: 25.0 mg/kg/injection, schedule: Q04DX003 (ip), vehicle: saline with Tween-80): 159 % of control | T/C (dose: 66.0 mg/kg/injection, schedule: Q04DX003 (ip), vehicle: saline with Tween-80): 158 % of control | T/C [2]: 170 % of control and 172 % of control and 187 % of control | T/C (dose: 150.0 mg/kg/injection, schedule: Q04DX003 (ip), vehicle: saline with Tween-80): 183 % of control | T/C [3]: 95 % of control | T/C (dose: 200.0 mg/kg/injection, schedule: Q04DX003 (ip), vehicle: saline with Tween-80): 162 % of control

CC1(C)OC2CC(=O)OCC23C1CC(=O)C1(C)C3CCC2(C)C(c3ccoc3)OC(=O)C3OC321 (stereo not drawn)
T/C (dose: 50.0 mg/kg/injection, schedule: Q01DX010 (ip), vehicle: saline): 100 % of control | T/C (dose: 100.0 mg/kg/injection, schedule: Q01DX010 (ip), vehicle: saline): 95 % of control | T/C (dose: 200.0 mg/kg/injection, schedule: Q01DX010 (ip), vehicle: saline): 95 % of control

CCCCCCC(/C=C/c1ccc(N(C)C)cc1)=N\O
T/C [4]: 93 % of control | T/C [3]: 93 % of control

N#C[S-].N#C[S-].[Au+3].[Au+3].[CH3-].[CH3-].[CH3-].[CH3-]
T/C (dose: 50.0 mg/kg/injection, schedule: Q04DX003 (ip), vehicle: saline with Tween-80): 100 % of control | T/C [2]: 120 % of control

CCCCC(CC)CN1CN2CN(CC(CC)CCCC)CC2(C)C1 (stereo not drawn)
T/C [1]: 100 % of control | T/C (dose: 25.0 mg/kg/injection, schedule: Q01DX005 (ip), vehicle: saline with Tween-80): 105 % of control | T/C [5]: 104 % of control and 105 % of control

c1ccc(C2OCC3(CO2)COC(c2ccccc2)OC3)cc1 (stereo not drawn)
T/C [6]: 90 % of control | T/C [4]: 100 % of control | T/C [3]: 90 % of control

COn1cc(C(=O)O)c(=O)c2c3sc(=O)n(C)c3ccc21
T/C [6]: 101 % of control | T/C [4]: 94 % of control | T/C [3]: 99 % of control

Cc1ccc2c(=O)c3ccccc3c3c2c1c1c(C)ccc2c(=O)c4ccccc4c3c21
T/C (dose: 50.0 mg/kg/injection, schedule: Q01DX005 (ip), vehicle: Klucel (hydroxypropylcellulose) (HPC)): 108 % of control | T/C (dose: 100.0 mg/kg/injection, schedule: Q01DX005 (ip), vehicle: Klucel (hydroxypropylcellulose) (HPC)): 102 % of control | T/C (dose: 200.0 mg/kg/injection, schedule: Q01DX005 (ip), vehicle: Klucel (hydroxypropylcellulose) (HPC)): 107 % of control

CCOC(=O)N1CC2C3CN(C(=O)OCC)C4CC3(C(=O)O)C1CC24C(=O)O
T/C [6]: 109 % of control | T/C [4]: 100 % of control | T/C [3]: 102 % of control

C1CC2CC1C13OC1C1(CC1)C1OC213 (stereo not drawn)
T/C (dose: 100.0 mg/kg/injection, schedule: Q01DX001 (ip), vehicle: Klucel (hydroxypropylcellulose) (HPC)): 106 % of control and 123 % of control | T/C (dose: 200.0 mg/kg/injection, schedule: Q01DX001 (ip), vehicle: Klucel (hydroxypropylcellulose) (HPC)): 109 % of control | T/C (dose: 400.0 mg/kg/injection, schedule: Q01DX001 (ip), vehicle: Klucel (hydroxypropylcellulose) (HPC)): 157 % of control

CC(C)C/C=C\CCCCCCCCCC(=O)NCC(=O)O
T/C (dose: 12.5 mg/kg/injection, schedule: Q01DX009 (ip), vehicle: distilled water + Tween-80): 93 % of control | T/C (dose: 25.0 mg/kg/injection, schedule: Q01DX009 (ip), vehicle: distilled water + Tween-80): 92 % of control | T/C (dose: 50.0 mg/kg/injection, schedule: Q01DX009 (ip), vehicle: distilled water + Tween-80): 95 % of control | T/C (dose: 100.0 mg/kg/injection, schedule: Q01DX009 (ip), vehicle: distilled water + Tween-80): 93 % of control | T/C (dose: 200.0 mg/kg/injection, schedule: Q01DX009 (ip), vehicle: distilled water + Tween-80): 100 % of control

O=c1cc(-c2ccc(Cl)cc2)c(-c2ccc(Cl)cc2)nn1CCO
T/C (dose: 100.0 mg/kg/injection, schedule: Q04DX002 (ip), vehicle: saline with Tween-80): 95 % of control | T/C (dose: 200.0 mg/kg/injection, schedule: Q04DX002 (ip), vehicle: saline with Tween-80): 95 % of control | T/C (dose: 400.0 mg/kg/injection, schedule: Q04DX002 (ip), vehicle: saline with Tween-80): 89 % of control

CCCCNc1ccc(Nc2ccccc2)cc1
T/C (dose: 6.25 mg/kg/injection, schedule: Q01DX009 (ip), vehicle: saline with Tween-80): 95 % of control | T/C (dose: 12.5 mg/kg/injection, schedule: Q01DX009 (ip), vehicle: saline with Tween-80): 108 % of control | T/C (dose: 25.0 mg/kg/injection, schedule: Q01DX009 (ip), vehicle: saline with Tween-80): 115 % of control | T/C [6]: 121 % of control

CNC(=O)Nc1nc2ccc([N+](=O)[O-])cc2[nH]1
T/C (dose: 200.0 mg/kg/injection, schedule: Q04DX003 (oral), vehicle: saline with Tween-80): 110 % of control | T/C (dose: 400.0 mg/kg/injection, schedule: Q04DX003 (oral), vehicle: saline with Tween-80): 112 % of control | T/C (dose: 800.0 mg/kg/injection, schedule: Q04DX003 (oral), vehicle: saline with Tween-80): 116 % of control and 121 % of control

CCOP(=O)(CS(=O)CCC1(C)NC(=O)NC1=O)OCC (stereo not drawn)
T/C (dose: 50.0 mg/kg/injection, schedule: Q01DX005 (ip), vehicle: saline): 100 % of control | T/C (dose: 100.0 mg/kg/injection, schedule: Q01DX005 (ip), vehicle: saline): 101 % of control | T/C (dose: 200.0 mg/kg/injection, schedule: Q01DX005 (ip), vehicle: saline): 103 % of control

CN1C2=C(C(=O)CCC2)C(c2ccccc2)C2=C1CCCC2=O
T/C [5]: 103 % of control | T/C (dose: 100.0 mg/kg/injection, schedule: Q01DX005 (ip), vehicle: saline with Tween-80): 100 % of control | T/C (dose: 200.0 mg/kg/injection, schedule: Q01DX005 (ip), vehicle: saline with Tween-80): 98 % of control

CN(C)C12CCC(c3ccccc31)c1ccccc12
T/C [7]: 105 % of control | T/C [8]: 97 % of control | T/C [9]: 104 % of control

CCCCCC(CN(C)C)C(/C=C/c1ccc(Cl)c(Cl)c1)=N\O (stereo not drawn)
T/C (dose: 50.0 mg/kg/injection, schedule: Q01DX009 (ip), vehicle: saline): 116 % of control | T/C [10]: 105 % of control

C=C(C)C1(O)c2c(Cl)cccc2C(c2ccccc2)c2cccc(Cl)c21 (stereo not drawn)
T/C (dose: 100.0 mg/kg/injection, schedule: Q01DX001 (ip), vehicle: saline with Tween-80): 110 % of control | T/C (dose: 200.0 mg/kg/injection, schedule: Q01DX001 (ip), vehicle: saline with Tween-80): 107 % of control | T/C (dose: 400.0 mg/kg/injection, schedule: Q01DX001 (ip), vehicle: saline with Tween-80): 100 % of control

COc1c2occc2c(OC)c2c(C)c(C(=O)OCCN3CCOCC3)oc12
T/C (dose: 60.0 mg/kg/injection, schedule: Q01DX005 (ip), vehicle: Klucel (hydroxypropylcellulose) (HPC)): 96 % of control | T/C (dose: 120.0 mg/kg/injection, schedule: Q01DX005 (ip), vehicle: Klucel (hydroxypropylcellulose) (HPC)): 91 % of control | T/C (dose: 240.0 mg/kg/injection, schedule: Q01DX005 (ip), vehicle: Klucel (hydroxypropylcellulose) (HPC)): 91 % of control

Cc1cccc(=N)n1CCC(=O)O
T/C [10]: 90 % of control | T/C (dose: 200.0 mg/kg/injection, schedule: Q01DX009 (ip), vehicle: saline): 100 % of control

OCCN1CCN(Cc2cc(Cl)cc(CN3CCN(CCO)CC3)c2O)CC1
T/C [7]: 100 % of control | T/C [8]: 97 % of control | T/C [9]: 100 % of control

N#CC(C(=O)CCc1nc2ccccc2[nH]1)c1nc2ccccc2s1 (stereo not drawn)
T/C [7]: 102 % of control | T/C [8]: 100 % of control | T/C [9]: 105 % of control
